According to ChEMBL document CHEMBL3120141, “Discovery of (1R,6S)-5-[4-(1-cyclobutyl-piperidin-4-yloxy)-phenyl]-3,4-diaza-bicyclo[4.1.0]hept-4-en-2-one (R,S-4a): histamine H(3) receptor inverse agonist demonstrating potent cognitive enhancing and wake promoting activity” (Bioorg Med Chem Lett, 2014):
Each block holds one compound with its values, some of them ahead of it.

What was measured:
[1] = biological target: Histamine H3 receptor (Rattus norvegicus, UniProt Q9QYN8); assay: Displacement of [3H]NAMH from rat histamine H3 receptor transfected in CHO cells; assay type: cell-based
Chain of Histamine H3 receptor (Rattus norvegicus, UniProt Q9QYN8) (Q9QYN8 whole entry): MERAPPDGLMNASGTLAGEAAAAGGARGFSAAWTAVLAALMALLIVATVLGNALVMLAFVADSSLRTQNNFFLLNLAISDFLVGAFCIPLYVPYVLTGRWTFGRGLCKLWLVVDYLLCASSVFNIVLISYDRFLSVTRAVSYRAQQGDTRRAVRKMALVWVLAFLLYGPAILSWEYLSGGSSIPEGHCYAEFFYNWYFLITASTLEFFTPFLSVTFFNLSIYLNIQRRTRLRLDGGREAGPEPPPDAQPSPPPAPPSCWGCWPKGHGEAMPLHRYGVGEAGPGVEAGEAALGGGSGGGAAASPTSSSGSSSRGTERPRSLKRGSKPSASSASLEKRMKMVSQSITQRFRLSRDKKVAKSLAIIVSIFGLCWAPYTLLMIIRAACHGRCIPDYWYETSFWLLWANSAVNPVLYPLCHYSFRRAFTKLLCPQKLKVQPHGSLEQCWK

[2] = species on record: Homo sapiens; assay: Selectivity ratio for human histamine H3 receptor over human histamine H4 receptor
[3] = species on record: Homo sapiens; assay: Selectivity ratio for human histamine H3 receptor over human histamine H2 receptor
[4] = biological target: T1, Histamine H3 receptor (Homo sapiens, UniProt Q9Y5N1); assay: Displacement of [3H]NAMH from human histamine H3 receptor transfected in CHO cells; assay type: cell-based
T1 sequence (Q9Y5N1 whole entry): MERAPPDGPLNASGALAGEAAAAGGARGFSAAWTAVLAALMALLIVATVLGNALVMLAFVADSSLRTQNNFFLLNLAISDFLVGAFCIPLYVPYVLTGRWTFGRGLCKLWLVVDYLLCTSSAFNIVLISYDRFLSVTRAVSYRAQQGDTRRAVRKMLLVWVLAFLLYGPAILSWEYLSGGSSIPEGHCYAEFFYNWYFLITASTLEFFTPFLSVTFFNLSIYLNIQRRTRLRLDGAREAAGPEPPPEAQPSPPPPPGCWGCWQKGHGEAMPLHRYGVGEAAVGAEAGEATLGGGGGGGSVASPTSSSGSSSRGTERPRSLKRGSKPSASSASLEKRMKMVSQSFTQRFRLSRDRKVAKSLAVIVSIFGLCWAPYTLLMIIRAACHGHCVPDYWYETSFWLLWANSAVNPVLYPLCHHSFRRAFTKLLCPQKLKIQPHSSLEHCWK

[5] = species on record: Homo sapiens; assay: Selectivity ratio for human histamine H3 receptor over human histamine H1 receptor
[6] = biological target: Voltage-gated inwardly rectifying potassium channel KCNH2 (Homo sapiens, UniProt Q12809); assay: Inhibition of human ERG channel by patch clamp technique
[7] = tested on: Rattus norvegicus; assay: Oral bioavailability in rat at 5 mg/kg; assay type: ADME, organism-based; settings: in vivo
[8] = Half life in dog liver microsomes; assay type: ADME, Canis lupus familiaris
[9] = biological target: Histamine H4 receptor (Homo sapiens) (UniProt Q9H3N8); assay: Inhibition of human histamine H4 receptor at 10 uM
[10] = biological target: T2, Cytochrome P450 1A2 (Homo sapiens, UniProt P05177); assay: Inhibition of CYP1A2 (unknown origin); assay type: ADME
T2 sequence (P05177 whole entry): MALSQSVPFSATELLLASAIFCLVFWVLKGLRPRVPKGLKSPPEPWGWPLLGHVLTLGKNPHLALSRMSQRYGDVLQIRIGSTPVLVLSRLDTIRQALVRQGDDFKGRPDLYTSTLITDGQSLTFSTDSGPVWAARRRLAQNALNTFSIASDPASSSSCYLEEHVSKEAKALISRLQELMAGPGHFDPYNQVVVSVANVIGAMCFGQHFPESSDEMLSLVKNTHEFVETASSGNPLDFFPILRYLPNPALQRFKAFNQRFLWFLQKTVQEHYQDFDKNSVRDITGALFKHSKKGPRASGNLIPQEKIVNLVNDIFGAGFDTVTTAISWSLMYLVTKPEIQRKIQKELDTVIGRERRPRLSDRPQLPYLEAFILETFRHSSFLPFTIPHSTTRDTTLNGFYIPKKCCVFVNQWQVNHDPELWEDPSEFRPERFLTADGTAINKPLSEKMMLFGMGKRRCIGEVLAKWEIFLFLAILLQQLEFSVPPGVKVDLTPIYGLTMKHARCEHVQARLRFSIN

[11] = biological target: Sodium-dependent dopamine transporter (Homo sapiens) (UniProt Q01959); assay: Inhibition of dopamine transporter (unknown origin) at 10 uM
Chain of Sodium-dependent dopamine transporter (Homo sapiens) (Q01959 whole entry): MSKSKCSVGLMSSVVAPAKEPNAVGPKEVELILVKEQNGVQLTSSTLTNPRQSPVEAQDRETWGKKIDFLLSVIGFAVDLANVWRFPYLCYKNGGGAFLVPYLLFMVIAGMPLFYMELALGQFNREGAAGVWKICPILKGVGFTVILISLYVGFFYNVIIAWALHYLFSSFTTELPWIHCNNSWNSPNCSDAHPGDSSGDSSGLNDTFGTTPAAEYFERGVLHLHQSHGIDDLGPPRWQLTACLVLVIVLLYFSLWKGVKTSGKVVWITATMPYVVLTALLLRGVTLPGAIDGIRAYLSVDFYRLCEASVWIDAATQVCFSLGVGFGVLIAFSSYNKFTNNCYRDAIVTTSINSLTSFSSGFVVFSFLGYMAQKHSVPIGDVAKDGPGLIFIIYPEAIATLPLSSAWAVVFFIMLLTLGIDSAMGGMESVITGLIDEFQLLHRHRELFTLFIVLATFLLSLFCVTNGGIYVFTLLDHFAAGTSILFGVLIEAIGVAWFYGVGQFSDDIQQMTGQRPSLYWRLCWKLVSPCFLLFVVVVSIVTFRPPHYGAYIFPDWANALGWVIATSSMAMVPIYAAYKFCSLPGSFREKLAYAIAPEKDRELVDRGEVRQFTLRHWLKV

[12] = Half life in monkey liver microsomes; assay type: ADME, Macaca mulatta, Microsome; settings: rhesus monkey
[13] = Half life in rat liver microsomes; assay type: ADME
[14] = Ratio of drug uptake in brain to plasma in rat at 10 mg/kg, ip after 6 hrs; assay type: ADME, organism-based; design: dose 10 mg/kg, route intraperitoneal; settings: read-out: BPR
[15] = biological target: Cytochrome P450 2C9 (Homo sapiens, UniProt P11712); assay: Inhibition of CYP2C9 (unknown origin); assay type: ADME
Chain of Cytochrome P450 2C9 (P11712 whole entry): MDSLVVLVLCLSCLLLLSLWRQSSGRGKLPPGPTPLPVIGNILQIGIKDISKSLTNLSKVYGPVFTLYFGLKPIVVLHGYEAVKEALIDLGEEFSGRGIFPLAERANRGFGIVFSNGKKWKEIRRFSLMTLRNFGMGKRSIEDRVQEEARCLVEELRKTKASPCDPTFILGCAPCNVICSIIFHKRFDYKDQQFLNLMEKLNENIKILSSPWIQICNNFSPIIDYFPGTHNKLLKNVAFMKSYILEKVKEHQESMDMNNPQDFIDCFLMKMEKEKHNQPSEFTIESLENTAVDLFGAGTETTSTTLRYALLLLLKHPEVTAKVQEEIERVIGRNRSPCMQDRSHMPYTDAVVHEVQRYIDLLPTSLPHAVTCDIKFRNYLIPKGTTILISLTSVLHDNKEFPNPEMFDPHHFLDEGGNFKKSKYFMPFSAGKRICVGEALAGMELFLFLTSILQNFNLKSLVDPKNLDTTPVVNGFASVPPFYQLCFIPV

[16] = biological target: Cytochrome P450 2D6 (Homo sapiens, UniProt P10635); assay: Inhibition of CYP2D6 (unknown origin); assay type: ADME
Chain of Cytochrome P450 2D6 (P10635 whole entry): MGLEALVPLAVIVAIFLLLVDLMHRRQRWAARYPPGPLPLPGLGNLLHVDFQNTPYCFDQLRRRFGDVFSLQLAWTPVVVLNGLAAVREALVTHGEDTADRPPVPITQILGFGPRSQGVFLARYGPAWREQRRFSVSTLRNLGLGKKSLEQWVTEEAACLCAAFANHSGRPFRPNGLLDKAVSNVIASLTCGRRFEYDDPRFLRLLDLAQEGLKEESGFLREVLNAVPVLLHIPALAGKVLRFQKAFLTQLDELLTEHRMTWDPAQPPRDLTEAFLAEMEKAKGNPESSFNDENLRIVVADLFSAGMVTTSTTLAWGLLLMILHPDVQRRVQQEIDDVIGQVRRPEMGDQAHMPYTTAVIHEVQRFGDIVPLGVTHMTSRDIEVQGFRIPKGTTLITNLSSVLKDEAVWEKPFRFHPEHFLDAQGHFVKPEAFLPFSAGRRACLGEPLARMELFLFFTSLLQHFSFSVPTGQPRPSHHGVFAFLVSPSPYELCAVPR

[17] = Volume of distribution at steady state in rat at 1 mg/kg, iv; assay type: ADME, organism-based; design: dose 1 mg/kg, route intravenous; settings: in vivo, read-out: Vdss
[18] = biological target: Histamine H2 receptor (Homo sapiens) (UniProt P25021); assay: Inhibition of human histamine H2 receptor at 10 uM
Chain of Histamine H2 receptor (Homo sapiens) (P25021 whole entry): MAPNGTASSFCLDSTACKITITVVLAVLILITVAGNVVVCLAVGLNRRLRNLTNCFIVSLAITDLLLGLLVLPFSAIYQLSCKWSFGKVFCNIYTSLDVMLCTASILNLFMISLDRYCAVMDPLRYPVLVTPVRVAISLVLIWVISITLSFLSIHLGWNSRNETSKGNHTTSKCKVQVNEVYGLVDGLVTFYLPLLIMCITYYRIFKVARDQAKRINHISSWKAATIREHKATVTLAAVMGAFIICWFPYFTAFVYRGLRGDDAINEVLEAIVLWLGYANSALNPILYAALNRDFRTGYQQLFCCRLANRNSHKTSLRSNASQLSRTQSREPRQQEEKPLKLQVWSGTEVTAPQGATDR

[19] = Cmax in rat at 5 mg/kg, po; assay type: ADME, organism-based; design: dose 5 mg/kg, route oral; settings: in vivo
[20] = biological target: Cytochrome P450 2C19 (Homo sapiens, UniProt P33261); assay: Inhibition of CYP2C19 (unknown origin); assay type: ADME
Chain of Cytochrome P450 2C19 (P33261 whole entry): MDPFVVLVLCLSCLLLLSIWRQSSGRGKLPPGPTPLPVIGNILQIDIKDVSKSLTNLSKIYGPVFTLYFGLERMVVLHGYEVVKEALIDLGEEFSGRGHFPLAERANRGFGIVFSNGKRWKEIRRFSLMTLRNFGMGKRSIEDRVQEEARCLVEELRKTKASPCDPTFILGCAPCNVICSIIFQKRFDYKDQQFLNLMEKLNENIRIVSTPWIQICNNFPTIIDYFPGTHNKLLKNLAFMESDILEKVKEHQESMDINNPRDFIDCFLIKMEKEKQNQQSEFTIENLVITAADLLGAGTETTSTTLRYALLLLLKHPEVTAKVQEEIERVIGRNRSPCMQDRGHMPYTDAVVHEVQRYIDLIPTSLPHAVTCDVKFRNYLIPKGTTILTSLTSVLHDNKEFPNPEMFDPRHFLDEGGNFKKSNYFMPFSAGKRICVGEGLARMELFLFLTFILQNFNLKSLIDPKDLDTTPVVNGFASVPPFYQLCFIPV

[21] = biological target: T1, Histamine H3 receptor; assay: Inverse agonist activity at human histamine H3 receptor by [35S]GTPgammaS binding assay; assay type: functional
[22] = Half life in mouse liver microsomes; assay type: ADME, Microsome
[23] = Half life in human liver microsomes; assay type: ADME
[24] = biological target: Histamine H1 receptor (Homo sapiens) (UniProt P35367); assay: Inhibition of human histamine H1 receptor at 10 uM
Chain of Histamine H1 receptor (Homo sapiens) (P35367 whole entry): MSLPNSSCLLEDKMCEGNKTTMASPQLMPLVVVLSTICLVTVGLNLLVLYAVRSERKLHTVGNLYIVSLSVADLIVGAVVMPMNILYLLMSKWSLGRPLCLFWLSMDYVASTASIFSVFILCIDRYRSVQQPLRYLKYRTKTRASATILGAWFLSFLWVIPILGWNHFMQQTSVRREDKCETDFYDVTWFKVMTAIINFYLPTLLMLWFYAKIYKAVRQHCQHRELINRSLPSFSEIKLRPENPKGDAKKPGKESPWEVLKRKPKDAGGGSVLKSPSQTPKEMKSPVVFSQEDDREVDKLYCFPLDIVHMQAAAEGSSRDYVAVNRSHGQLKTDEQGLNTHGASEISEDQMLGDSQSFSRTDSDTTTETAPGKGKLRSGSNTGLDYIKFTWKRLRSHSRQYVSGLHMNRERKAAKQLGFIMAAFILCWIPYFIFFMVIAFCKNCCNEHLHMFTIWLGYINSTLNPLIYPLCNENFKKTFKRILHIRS

[25] = tested on: Rattus norvegicus; assay: AUC in rat at 5 mg/kg, po; assay type: ADME, organism-based, Plasma; design: dose 5 mg/kg, route oral; settings: in vivo
[26] = Terminal half life in rat at 1 mg/kg, iv; assay type: ADME, organism-based; design: dose 1 mg/kg, route intravenous; settings: in vivo, read-out: beta t1/2 (converted)
[27] = biological target: Cytochrome P450 3A4 (Homo sapiens, UniProt P08684); assay: Inhibition of CYP3A4 (unknown origin); assay type: ADME
Chain of Cytochrome P450 3A4 (P08684 whole entry): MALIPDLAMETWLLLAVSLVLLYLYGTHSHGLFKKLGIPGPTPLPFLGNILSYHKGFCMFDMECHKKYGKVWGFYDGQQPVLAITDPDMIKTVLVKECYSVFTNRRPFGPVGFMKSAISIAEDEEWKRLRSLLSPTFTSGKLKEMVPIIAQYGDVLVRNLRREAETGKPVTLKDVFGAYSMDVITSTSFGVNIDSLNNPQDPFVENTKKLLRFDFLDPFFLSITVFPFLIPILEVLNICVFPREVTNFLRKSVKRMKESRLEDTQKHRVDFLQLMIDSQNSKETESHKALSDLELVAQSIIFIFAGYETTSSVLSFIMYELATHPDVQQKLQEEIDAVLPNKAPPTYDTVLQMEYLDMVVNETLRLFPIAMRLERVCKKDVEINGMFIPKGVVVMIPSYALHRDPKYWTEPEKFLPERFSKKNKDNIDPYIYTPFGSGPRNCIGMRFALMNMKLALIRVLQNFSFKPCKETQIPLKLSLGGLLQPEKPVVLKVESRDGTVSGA

[28] = Metabolic stability in mouse liver microsomes; assay type: ADME, Microsome
[29] = tested on: Liver microsome; assay: Metabolic stability in dog liver microsomes; assay type: ADME, Canis lupus familiaris
[30] = tested on: Liver microsome; assay: Metabolic stability in human liver microsomes; assay type: ADME
[31] = tested on: Liver microsome; assay: Metabolic stability in rat liver microsomes; assay type: ADME

Compound: O=C1C2CC2C(c2ccc(OC3CCN(C4CCC4)CC3)cc2)=NN1c1ccc(F)cc1 (racemic)
Ki [1]: 6.7 nM
Selectivity ratio [2]: > 1000
Selectivity ratio [3]: > 1000
Ki [4]: 3.5 nM
Selectivity ratio [5]: > 1000

Compound: CN1N=C(c2ccc(OC3CCN(C4CCCC4)CC3)cc2)C2CC2C1=O (racemic)
Ki [1]: 5.7 nM
Selectivity ratio [2]: > 1000
Selectivity ratio [3]: > 1000
Ki [4]: 3.6 nM
Selectivity ratio [5]: > 1000

Compound: O=C1NN=C(c2ccc(OC3CCN(C4CCCC4)CC3)cc2)C2CC12 (racemic)
Stability [28]: Stable
Ki [1]: 8.1 nM
Selectivity ratio [2]: > 1000
Stability [29]: Stable
Selectivity ratio [3]: > 1000
inhibition (INH) ([10]; human): Not Active
Stability [30]: Stable
Ki [4]: 3.7 nM
inhibition (INH) ([15]; human): Not Active
inhibition (INH) ([16]; human): Not Active
inhibition (INH) ([20]; human): Not Active
Stability [31]: Stable
Selectivity ratio [5]: > 1000
inhibition (INH) ([27]; human): Not Active

Compound: CCN1CCC(Oc2ccc(C3=NNC(=O)C4CC34)cc2)CC1 (racemic)
Ki [1]: 228 nM
Ki [4]: 173 nM

Second part, led by results:

F [7]: 66%
Ki [1]: 12 nM
half-life [8]: > 40 min
inhibition [9]: < 10%
IC50 [10]: > 30000 nM
inhibition [11]: 63%
Ki [4]: 6.8 nM
half-life [12]: > 40 min
half-life [13]: > 40 min
Kp at 6 h [14]: 5
IC50 [15]: > 30000 nM
IC50 [16]: > 30000 nM
Vd [17]: 3 L/kg
inhibition [18]: < 10%
Cmax [19]: 649 ng/mL
IC50 [20]: > 30000 nM
EC50 [21]: 0.5 nM
half-life [22]: > 40 min
half-life [23]: > 40 min
inhibition [24]: < 10%
AUC [25]: 5144 ng·h/mL
half-life [26]: 96 min
IC50 [27]: > 30000 nM
Compound: O=C1NN=C(c2ccc(OC3CCN(C4CCC4)CC3)cc2)[C@@H]2C[C@H]12
IC50 [6]: 6000 nM

Ki [1]: 8.4 nM
Ki [4]: 4.7 nM
Compound: O=C1NN=C(c2ccc(OC3CCN(C4CCC4)CC3)cc2)C2CC12 (racemic)
